Data on four molecules can be found in US7049341B2, “N-benzoylureidocinnamic acid derivatives, processes for preparing them and their use” (Aventis Pharma Deutschland GmbH, priority 2002, dated 2006).

In this test the target is T1, Human glycogen phosphorylase a (Homo sapiens, UniProt P06737).
T1 sequence (P06737 1-847): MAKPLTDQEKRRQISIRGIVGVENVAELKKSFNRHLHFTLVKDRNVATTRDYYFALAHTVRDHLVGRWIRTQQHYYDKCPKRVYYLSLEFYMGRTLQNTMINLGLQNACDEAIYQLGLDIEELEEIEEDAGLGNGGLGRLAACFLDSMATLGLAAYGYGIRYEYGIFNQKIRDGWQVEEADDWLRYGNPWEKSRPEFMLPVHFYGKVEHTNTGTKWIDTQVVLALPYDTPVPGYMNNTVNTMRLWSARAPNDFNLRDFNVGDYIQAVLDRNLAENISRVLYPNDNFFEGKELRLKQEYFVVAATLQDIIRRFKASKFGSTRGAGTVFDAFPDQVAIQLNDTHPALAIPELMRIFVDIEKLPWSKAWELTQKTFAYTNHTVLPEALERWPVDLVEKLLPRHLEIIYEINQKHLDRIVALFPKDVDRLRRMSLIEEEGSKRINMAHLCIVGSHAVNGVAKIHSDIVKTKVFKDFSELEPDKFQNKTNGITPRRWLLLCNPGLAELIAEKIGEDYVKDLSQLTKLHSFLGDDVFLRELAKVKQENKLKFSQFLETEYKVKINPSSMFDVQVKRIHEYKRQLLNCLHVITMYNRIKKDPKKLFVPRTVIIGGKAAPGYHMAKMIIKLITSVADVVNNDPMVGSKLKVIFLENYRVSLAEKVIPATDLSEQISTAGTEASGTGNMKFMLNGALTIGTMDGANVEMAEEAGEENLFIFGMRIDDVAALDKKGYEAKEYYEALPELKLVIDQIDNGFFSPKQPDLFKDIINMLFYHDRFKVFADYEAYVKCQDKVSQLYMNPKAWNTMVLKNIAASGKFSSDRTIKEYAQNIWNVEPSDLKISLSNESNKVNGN
As to the kind of experiment: Glycogen phosphorylase a activity test (reverse direction, release of inorganic phosphate). The format is biochemical. The note with it: 10 μM concentration of the test substance; in vitro, duplicate determinations. The method, then:
Glycogen Phosphorylase a Activity Test
The effect of compounds on the activity of the active form of glycogen phosphorylase (GPa) was measured in the reverse direction by monitoring the synthesis of glycogen from glucose 1-phosphate by determining the release of inorganic phosphate. All the reactions were carried out as duplicate determinations in 96-well microtiter plates (Half Area Plates, Costar No. 3696), with the change in absorption due to the formation of the reaction product being measured, at the wavelength specified below, in a Multiscan Ascent Elisa Reader (Lab Systems, Finland). In order to measure the enzymic activity of GPa in the reverse direction, the conversion of glucose 1-phosphate into glycogen and inorganic phosphate was measured in accordance with the general method of Engers et al. (Engers H D, Shechosky S, Madsen N B, Can J Biochem 1970 July;48(7): 746–754) but with the following modifications: Human glycogen phosphorylase a (for example containing 0.76 mg of protein/ml (Aventis Pharma Deutschland GmbH), dissolved in buffer solution E (25 mM β-glycerophosphate, pH 7.0, 1 mM EDTA and 1 mM dithiothreitol), was diluted with buffer T (50 mM Hepes, pH 7.0, 100 mM KCl, 2.5 mM EDTA, 2.5 mM MgCl2.6H2O), and addition of 5 mg of glycogen/ml, to a concentration of 10 μg of protein/ml. Test substances were prepared as a 10 mM solution in DMSO and diluted down to 50 μM with buffer solution T. 10 μl of 37.5 mM glucose, dissolved in buffer solution T and 5 mg/ml of glycogen, and also 10 μl of a solution of human glycogen phosphorylase a (10 μg of protein/ml) and 20 μl of glucose 1-phosphate, 2.5 mM, were added to […] of the solution. The basal value of the activity of the glycogen phosphorylase a in the absence of test substance was determined by adding 10 μl of buffer solution T (0.1% DMSO). The mixture was incubated at room temperature for 40 minutes and the inorganic phosphate which was released was measured using the general method of Drueckes et al. (Drueckes P, Schinzel R, Palm D, Anal Biochem 1995 Sep. 1;230(1):173–177) but with the following modifications: 50 μl of a stop solution of 7.3 mM ammonium molybdate, 10.9 mM zinc acetate, 3.6% ascorbic acid, 0.9% SDS are added to 50 μl of the enzyme mixture. After 60 minutes of incubation at 45° C., the absorption was measured at 820 nm. In order to determine the background absorption, the stop solution was added immediately after adding the glucose 1-phosphate solution in a separate assay. This test was carried out using a 10 μM concentration of the test substance in order to determine the respective inhibition of glycogen phosphorylase a by the test substance in vitro.
Usually inhibition stands for the drop in the measured response relative to a control, in per cent. For `O=C(O)C=Cc1ccccc1NC(=O)NC(=O)c1cc(F)c(F)cc1Cl` [Example 2, 3-{2-[3-(2-chloro-4,5-difluorobenzoyl)ureido]phenyl}acrylic acid], the inhibition at 10 µM came to 101%.

`COC(=O)C=Cc1cc(C(=O)O)ccc1NC(=O)NC(=O)c1cc(F)c(F)cc1Cl` [Example 7, 4-[3-(2-chloro-4,5-difluorobenzoyl)ureido]-3-(2-methoxycarbonylvinyl)benzoic acid]: the inhibition at 10 µM worked out at 96%.

For the molecule `CC(=O)Nc1ccc(C=CC(=O)O)c(NC(=O)NC(=O)c2cc(F)c(F)cc2Cl)c1` [Example 3, 3-{4-Acetylamino-2-[3-(2-chloro-4,5-difluorobenzoyl)ureido]phenyl}acrylic acid], the inhibition at 10 µM stood at 95%.

`COC(=O)C=Cc1cc(C(=O)OC)ccc1NC(=O)NC(=O)c1cc(F)c(F)cc1Cl` [Example 11, Methyl 4-[3-(2-chloro-4,5-difluorobenzoyl)ureido]-3-(2-methoxycarbonylvinyl)benzoate]: the inhibition at 10 µM is 91%.
